# Measurements reported in patent US10717746B2, “Chemical compounds” (ASTRAZENECA AB, priority 2015, dated 2020).
# Assays:
# [1] = molecular target: T1, CDK9/CycT1 (Homo sapiens (Human), UniProt P50750); test: CDK9 kinase assay, ATP concentration at Km (mobility shift, Caliper LC3000); format: biochemical; settings: 6 μM ATP, 3 nM CDK9/CycT1; read-out: CDK9 ATP conc. at Km (IC50)
# In short: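 […], compound sat 15 min with enzyme mix: 3 nM CDK9/CycT1, 1.5 µM FITC-GSRTPMY substrate, 6 µM ATP, pH 7.2 HEPES buffer.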
# [2] = molecular target: T1, CDK9/CycT1; test: CDK9 kinase assay, high ATP concentration (5 mM ATP); format: biochemical; settings: 1.5 nM CDK9, read-out: CDK9 High ATP conc. (IC50)
# In short: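 Caliper mobility-shift read-out of phosphorylated vs unphosphorylated FITC-peptide (1.5 μM), giving percent turnover. Final 1.5 nM CDK9/CycT1 and 5 mM ATP in 50 mM HEPES pH 7.2, 1 mM DTT, 10 mM MgCl2; compound preincubated 15 min, reaction 90 min at 25° C, stopped with EDTA.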
# [3] = tested on: phosphorylation of RNA Polymerase II (RNAPII) at the Ser2 site in MCF7 cells; test: MCF7 pSer2 RNAPII MOA assay (immunofluorescence); format: cell-based; settings: Homo sapiens, MCF7, 6 h, 6-hr treatment, read-out: p-Ser 2 RNAPII (IC50)
# In short: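 Phospho-Ser2 RNAPII was measured by immunofluorescence (Alexa Fluor 488, DAPI counterstain) with plate cytometer read-out. Before staining, cells were fixed with paraformaldehyde and permeabilized with Triton. Exposure was 6 h at 37° C. to CDK9 inhibitors over 7 points (3 μM to 0.004 μM) in MCF7 cells seeded at 2500/well the previous day.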
# [4] = tested on: MV411 cells; test: MV411 caspase activity assay (Caspase-Glo 3/7); format: cell-based; settings: Homo sapiens, MV4-11, 6 h, 6-hr treatment, caspase 3/7 induction
# In short: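 MV411 AML cells (3000/well) were plated overnight, then treated with compound for 6 h at 37 °C. Caspase-3/7 activity was read as luminescence after 30 min with Caspase-Glo 3/7 reagent at room temperature.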
# T1 sequence (P50750 whole entry): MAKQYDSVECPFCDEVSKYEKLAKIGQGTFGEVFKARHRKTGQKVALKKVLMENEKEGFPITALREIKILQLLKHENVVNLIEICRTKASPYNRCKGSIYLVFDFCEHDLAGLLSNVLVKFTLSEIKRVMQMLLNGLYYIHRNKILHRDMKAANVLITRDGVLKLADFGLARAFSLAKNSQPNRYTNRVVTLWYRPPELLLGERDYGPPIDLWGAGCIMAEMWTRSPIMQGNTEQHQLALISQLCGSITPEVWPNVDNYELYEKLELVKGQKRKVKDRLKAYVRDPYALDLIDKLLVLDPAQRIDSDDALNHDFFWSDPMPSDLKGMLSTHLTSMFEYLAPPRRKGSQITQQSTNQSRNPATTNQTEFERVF
# T1 sequence (O60563 whole entry partner): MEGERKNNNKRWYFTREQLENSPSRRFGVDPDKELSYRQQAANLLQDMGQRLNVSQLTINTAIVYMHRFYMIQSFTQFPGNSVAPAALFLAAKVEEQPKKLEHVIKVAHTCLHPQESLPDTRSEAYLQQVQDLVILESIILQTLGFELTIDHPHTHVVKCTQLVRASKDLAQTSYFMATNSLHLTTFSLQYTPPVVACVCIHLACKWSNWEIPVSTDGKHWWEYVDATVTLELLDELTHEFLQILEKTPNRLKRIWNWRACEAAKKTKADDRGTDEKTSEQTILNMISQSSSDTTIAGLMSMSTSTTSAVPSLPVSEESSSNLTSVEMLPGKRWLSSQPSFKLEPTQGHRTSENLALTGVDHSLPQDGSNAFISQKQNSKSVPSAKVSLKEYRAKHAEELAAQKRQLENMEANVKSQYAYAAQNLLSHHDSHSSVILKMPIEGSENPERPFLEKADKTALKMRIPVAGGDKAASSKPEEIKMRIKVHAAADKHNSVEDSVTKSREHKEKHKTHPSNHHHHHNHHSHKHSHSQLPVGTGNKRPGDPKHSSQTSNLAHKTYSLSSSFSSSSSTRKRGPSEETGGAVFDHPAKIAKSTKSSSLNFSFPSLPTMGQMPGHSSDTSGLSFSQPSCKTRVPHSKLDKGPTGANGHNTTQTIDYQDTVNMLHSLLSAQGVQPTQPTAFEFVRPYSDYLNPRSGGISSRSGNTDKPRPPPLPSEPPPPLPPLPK
SMILES,IC50 [1] [nM],IC50 [2] [nM],IC50 [3] [nM],IC50 [4] [nM]
"CC(=O)N[C@@H]1CCC[C@H](C(=O)Nc2cc(-c3cnn4c3CCCC4)ncn2)C1 [Example 28, (1S,3R)-3-acetamido-N-(6-(4,5,6,7-tetrahydropyrazolo[1,5-a]pyridin-3-yl)pyrimidin-4-yl)cyclohexanecarboxamide]",36,4710,> 3000,6600
"O=C(Nc1cc(-c2cnn3c2CCCC3)ncn1)[C@H]1C[C@H](O)C1 [Example 29, trans-3-hydroxy-N-(6-(4,5,6,7-tetrahydropyrazolo[1,5-a]pyridin-3-yl)pyrimidin-4-yl)cyclobutanecarboxamide]",63,7540,> 2630,7220
"CC(=O)N[C@@H]1CCC[C@H](C(=O)Nc2cc(-c3cnn4c3CC(C)(C)C4)ncn2)C1 [Example 30, (1S,3R)-3-acetamido-N-(6-(5,5-dimethyl-5,6-dihydro-4H-pyrrolo[1,2-b]pyrazol-3-yl)pyrimidin-4-yl)cyclohexanecarboxamide]",7,606,1240,1050
"O=C(Nc1cc(-c2cnn3c2CCCC3)c(Cl)cn1)[C@H]1CCC[C@@H](NC(=O)[C@@H]2CCCO2)C1 [Example 35, (S)—N-((1R,3S)-3-((5-chloro-4-(4,5,6,7-tetrahydropyrazolo[1,5-a]pyridin-3-yl)pyridin-2-yl)carbamoyl)cyclohexyl)tetrahydrofuran-2-carboxamide]",< 3,23,40,125
"O=C(Nc1cc(-c2cnn3c2CCCC3)c(Cl)cn1)[C@H]1CCC[C@@H](NC(=O)[C@H]2CCCO2)C1 [Example 36, (R)—N-((1R,3S)-3-((5-chloro-4-(4,5,6,7-tetrahydropyrazolo[1,5-a]pyridin-3-yl)pyridin-2-yl)carbamoyl)cyclohexyl)tetrahydrofuran-2-carboxamide]",< 3,39,38,104
"C[C@H](O)C(=O)N[C@@H]1CCC[C@H](C(=O)Nc2cc(-c3cnn4c3CCCC4)c(Cl)cn2)C1 [Example 37, (1S,3R)—N-(5-chloro-4-(4,5,6,7-tetrahydropyrazolo[1,5-a]pyridin-3-yl)pyridin-2-yl)-3-((S)-2-hydroxypropanamido)cyclohexanecarboxamide]",< 3,38,149,177
"O=C(Nc1cc(-c2cnn3c2CCCC3)c(Cl)cn1)[C@H]1CCC[C@@H](NC(=O)[C@H]2CCOC2)C1 [Example 38, (S)—N-((1R,3S)-3-((5-chloro-4-(4,5,6,7-tetrahydropyrazolo[1,5-a]pyridin-3-yl)pyridin-2-yl)carbamoyl)cyclohexyl)tetrahydrofuran-3-carboxamide]",< 3,28,123,139
"CC(=O)N[C@@H]1CCC[C@H](C(=O)Nc2cc(-c3cnn4c3CC(C)(C)C4)c(C#N)cn2)C1 [Example 39, (1S,3R)-3-acetamido-N-(5-cyano-4-(5,5-dimethyl-5,6-dihydro-4H-pyrrolo[1,2-b]pyrazol-3-yl)pyridin-2-yl)cyclohexanecarboxamide]",< 3,62,147,145
"CC(=O)N[C@@H]1CCC[C@H](C(=O)Nc2cc(-c3cnn4c3CC(C)C4)c(Cl)cn2)C1 (stereo partly drawn) [Example 40, (1S,3R)-3-acetamido-N-(5-chloro-4-(5-methyl-5,6-dihydro-4H-pyrrolo[1,2-b]pyrazol-3-yl)pyridin-2-yl)cyclohexanecarboxamide]",< 3,28,57,67
"CC(=O)N[C@@H]1CCC[C@H](C(=O)Nc2cc(-c3cnn4c3CC(C)(C)CC4)ccn2)C1 [Example 44, (1S,3R)-3-acetamido-N-(4-(5,5-dimethyl-4,5,6,7-tetrahydropyrazolo[1,5-a]pyridin-3-yl)pyridin-2-yl)cyclohexanecarboxamide]",< 3,8,48,39
"CC1(C)Cc2c(-c3cc(NC(=O)[C@H]4CCC[C@@H](NC(=O)[C@@H]5CCCO5)C4)ncc3Cl)cnn2C1 [Example 45, (S)—N-((1R,3S)-3-((5-chloro-4-(5,5-dimethyl-5,6-dihydro-4H-pyrrolo[1,2-b]pyrazol-3-yl)pyridin-2-yl)carbamoyl)cyclohexyl)tetrahydrofuran-2-carboxamide]",< 3,< 4,12,8

# More lines, now with the values ahead:
IC50 [1] [nM],IC50 [2] [nM],IC50 [3] [nM],IC50 [4] [nM],SMILES
< 3,< 3,6,12,"CC1(C)Cc2c(-c3cc(NC(=O)[C@H]4CCC[C@@H](NC(=O)[C@@H]5CCOC5)C4)ncc3Cl)cnn2C1 [Example 23, (R)—N-((1R,3S)-3-((5-chloro-4-(5,5-dimethyl-5,6-dihydro-4H-pyrrolo[1,2-b]pyrazol-3-yl)pyridin-2-yl)carbamoyl)cyclohexyl)tetrahydrofuran-3-carboxamide]"
< 3,4,11,15,"CC1(C)Cc2c(-c3cc(NC(=O)[C@H]4CCC[C@@H](NC(=O)[C@H]5CCOC5)C4)ncc3Cl)cnn2C1 [Example 24, (S)—N-((1R,3S)-3-((5-chloro-4-(5,5-dimethyl-5,6-dihydro-4H-pyrrolo[1,2-b]pyrazol-3-yl)pyridin-2-yl)carbamoyl)cyclohexyl)tetrahydrofuran-3-carboxamide]"
< 3,4,25,29,"CC(=O)N[C@@H]1CCC[C@H](C(=O)Nc2cc(-c3cnn4c3CC(C)(C)C4)c(F)cn2)C1 [Example 25, (1S,3R)-3-acetamido-N-(4-(5,5-dimethyl-5,6-dihydro-4H-pyrrolo[1,2-b]pyrazol-3-yl)-5-fluoropyridin-2-yl)cyclohexanecarboxamide]"
< 3,93,122,152,"CC1(C)Cc2c(-c3ccnc(NC(=O)[C@H]4C[C@@H](O)C4)c3)cnn2C1 [Example 26, cis-N-(4-(5,5-dimethyl-5,6-dihydro-4H-pyrrolo[1,2-b]pyrazol-3-yl)pyridin-2-yl)-3-hydroxycyclobutanecarboxamide]"
< 3,25,44,38,"CC1(C)Cc2c(-c3cc(NC(=O)[C@H]4C[C@@H](O)C4)ncc3Cl)cnn2C1 [Example 27, cis-N-(5-chloro-4-(5,5-dimethyl-5,6-dihydro-4H-pyrrolo[1,2-b]pyrazol-3-yl)pyridin-2-yl)-3-hydroxycyclobutanecarboxamide]"
< 3,12,36,90,"N#CCC(=O)N[C@@H]1CCC[C@H](C(=O)Nc2cc(-c3cnn4c3CCCC4)c(Cl)cn2)C1 [Example 31, (1S,3R)—N-(5-chloro-4-(4,5,6,7-tetrahydropyrazolo[1,5-a]pyridin-3-yl)pyridin-2-yl)-3-(2-cyanoacetamido)cyclohexanecarboxamide]"
< 3,16,170,177,"CC(C)(C)OC(=O)N[C@@H]1CCC[C@H](C(=O)Nc2cc(-c3cnn4c3CCCC4)c(Cl)cn2)C1 [Example 31a, tert-butyl ((1R,3S)-3-((5-chloro-4-(4,5,6,7-tetrahydropyrazolo[1,5-a]pyridin-3-yl)pyridin-2-yl)carbamoyl)cyclohexyl)carbamate]"
< 3,17,55,136,"O=C(Nc1cc(-c2cnn3c2CCCC3)c(Cl)cn1)[C@H]1CCC[C@@H](NC(=O)C2(O)CC2)C1 [Example 32, (1S,3R)—N-(5-chloro-4-(4,5,6,7-tetrahydropyrazolo[1,5-a]pyridin-3-yl)pyridin-2-yl)-3-(1-hydroxycyclopropanecarboxamido)cyclohexanecarboxamide]"
< 3,19,57,171,"O=C(Nc1cc(-c2cnn3c2CCCC3)c(Cl)cn1)[C@H]1CCC[C@@H](NC(=O)[C@@H]2CCOC2)C1 [Example 33, (R)—N-((1R,3S)-3-((5-chloro-4-(4,5,6,7-tetrahydropyrazolo[1,5-a]pyridin-3-yl)pyridin-2-yl)carbamoyl)cyclohexyl)tetrahydrofuran-3-carboxamide]"
< 3,29,107,188,"CC1(C(=O)N[C@@H]2CCC[C@H](C(=O)Nc3cc(-c4cnn5c4CCCC5)c(Cl)cn3)C2)COC1 [Example 34, N-((1R,3S)-3-((5-chloro-4-(4,5,6,7-tetrahydropyrazolo[1,5-a]pyridin-3-yl)pyridin-2-yl)carbamoyl)cyclohexyl)-3-methyloxetane-3-carboxamide]"
